Patent US20100203114A1, “MICELLE ENCAPSULATION OF THERAPEUTIC AGENTS” (WARF - Wisconsin Alumni Research Foundation, priority 2007, published 2010)
Where two headings read alike, the source gives them in different places.

What was measured:
[1] = 17-AAG loading in PEG-PLA micelles prepared by dialysis (HPLC); format: physicochemical
Procedure: Preparation and characterization of drug loaded PEG-PLA micelles. […] For example, 5 mg of 17-AAG and 45 mg of PEG-PLA (10:90 w/w) were dissolved in 10 mL DMAc. The resulting solution was dialyzed against H2O in 3500 MWCO tubing (SpectraPor). Resulting micelles were centrifuged at 5000 g's for 10 min to precipitate unincorporated drug. […] Micelle solutions were concentrated by rotary evaporation at reduced pressure at room temperature, followed by centrification (5000 g's for 10 minutes).
The loading experiments were investigated at 10% w/w to evaluate the suitability of PEG-PLA micelles for solubilizing 17-AAG.

[2] = tested on: MCF-7; conditions: reported by the National Cancer Institute; cited from earlier work
[3] = cited from earlier work
[4] = dogs; cited from earlier work
[5] = tested on: PC-3 human prostate cells; test: In vitro cytotoxicity, resazurin dye; format: cell-based; conditions: Prostate cell, 72 hours
Procedure: (§1) In vitro cytotoxicity studies. […] Cell lines were plated in 96-well plates at an initial density of 3000 cells per well in 90 μL of appropriate media, and maintained at 37° C. under a 5% CO2 atmosphere. […] Drug-loaded micelles or micelles alone were formulated in MilliQ water (following dialysis of DMSO to form the micelles). It was not necessary to dilute the samples further before addition to wells. […] Following, the metabolic rate of cells was determined by using resazurin dye (Sigma-Aldrich).

[6] = tested on: MCF-7 human breast cancer cells; test: In vitro cytotoxicity, resazurin dye; format: cell-based; conditions: MCF7, 72 hours
Procedure: as §1

C=CCNC1=C2C[C@@H](C)C[C@H](OC)[C@H](O)[C@@H](C)/C=C(\C)[C@H](OC(N)=O)[C@@H](OC)/C=C\C=C(/C)C(=O)NC(=CC1=O)C2=O [17-AAG, 17-allylamino-17-demethoxygeldanamycin]
mol 17-AAG:mol PEG-PLA ([1]; 0.3 mM PEG-PLA solution): 0.73±0.09
17-AAG solubilized ([1]; 0.3 mM PEG-PLA solution, initial 17-AAG 0.45 mg/mL (11.4% w/w)): 0.083 ± 0.012 mg/mL
17-AAG loaded ([1]; 0.3 mM PEG-PLA, weight 17-AAG versus total weight of carrier): 0.024 ± 0.003 mg/mg
17-AAG loading efficiency ([1]; PEG-PLA (12:6 kDa) micelles): 19±3 % w/w
drug loading ([1]; PEG-PLA (12:12 kDa) micelles, with and without alpha-tocopherol): < 0.5 mg/mL
time after which drug precipitated out of solution ([1]; micelles incorporating 1:1 alpha-tocopherol to drug, even at 4° C.): 4 to 5 h
Efficiency ([1]; total drug solubilized versus initial drug concentration): 19 ± 3% loaded
IC50 [2]: 12.6 nM
solubility of 17-AAG ([3]; according to the National Cancer Institute): ~10 µg/mL
aqueous solubility [3]: about 0.1 mg/mL
water solubility ([3]; neutral pH): about 0.1 mg/mL
maximum tolerated dose [4]: 100-200 mg/m^2/day
IC50 ([5]; n = 6, read-out: PC-3 IC50): 74 ± 14 nM
IC50 ([5]; read-out: IC50 in PC-3): 74 ± 14 nM
IC50 ([6]; n = 6, read-out: MCF-7 IC50): 22 ± 14 nM
IC50 ([6]; read-out: IC50 in MCF-7): 22 ± 14 nM

CO[C@H]1/C=C\C=C(/C)C(=O)NC2=CC(=O)C(NCCN(C)C)=C(C[C@@H](C)C[C@H](OC)[C@H](O)[C@@H](C)/C=C(\C)[C@@H]1OC(N)=O)C2=O [17-DMAG, 17-dimethylamino-ethylamino-17-demethoxygeldanamycin]
maximum tolerated dose [4]: 8 mg/m^2/day
